Consider four molecules from PubChem BioAssay AID1259407 (Chemical Carcinogenesis Research Information System (CCRIS), 2018).

The structures appear in SMILES notation. Active and inactive are the calls of the source. The rule behind the calls is not given here.

The test system of this series is CCRIS mutagenicity, Ames/micronucleus/aberration tests. Put plainly: CCRIS mutagenicity studies.
[1] abbreviates: Test System: AMES SALMONELLA TYPHIMURIUM, Strain/Indicator: TA98, Metabolic Activation: NONE, Method: PREINCUBATION
[2] abbreviates: Test System: AMES SALMONELLA TYPHIMURIUM, Strain/Indicator: TA100, Metabolic Activation: NONE, Method: PREINCUBATION
The mark [3] stands for this setting: Test System: AMES SALMONELLA TYPHIMURIUM, Strain/Indicator: TA1535, Metabolic Activation: NONE, Method: PREINCUBATION
[4] abbreviates: Test System: AMES SALMONELLA TYPHIMURIUM, Strain/Indicator: TA1537, Metabolic Activation: NONE, Method: PREINCUBATION
Where [5] appears, read: Test System: AMES SALMONELLA TYPHIMURIUM, Strain/Indicator: TA98, Metabolic Activation: NONE, Method: STANDARD PLATE.

As for `CC(=O)Nc1ccc(S(=O)(=O)Cl)cc1`, the mutagenic call under setting [1] is “inactive; negative”; the mutagenic call (Test System: AMES SALMONELLA TYPHIMURIUM, Strain/Indicator: TA98, Metabolic Activation: RAT LIVER S-9, PHENOBARBITAL AND BETA-NAPHTHOFLAVONE, Method: PREINCUBATION) was “inactive; negative”; the mutagenic call under setting [2] is “inactive; negative”; the mutagenic call (Test System: AMES SALMONELLA TYPHIMURIUM, Strain/Indicator: TA100, Metabolic Activation: RAT LIVER S-9, PHENOBARBITAL AND BETA-NAPHTHOFLAVONE, Method: PREINCUBATION) was “inactive; negative”; the mutagenic call (Test System: AMES SALMONELLA TYPHIMURIUM, Strain/Indicator: TA102, Metabolic Activation: NONE, Method: PREINCUBATION) was “inactive; negative”; the mutagenic call (Test System: AMES SALMONELLA TYPHIMURIUM, Strain/Indicator: TA102, Metabolic Activation: RAT LIVER S-9, PHENOBARBITAL AND BETA-NAPHTHOFLAVONE, Method: PREINCUBATION) was “inactive; negative”. Moreover, the mutagenic call was “inactive; negative” (Test System: AMES SALMONELLA TYPHIMURIUM, Strain/Indicator: TA104, Metabolic Activation: NONE, Method: PREINCUBATION); “inactive; negative” (Test System: AMES SALMONELLA TYPHIMURIUM, Strain/Indicator: TA104, Metabolic Activation: RAT LIVER S-9, PHENOBARBITAL AND BETA-NAPHTHOFLAVONE, Method: PREINCUBATION); “inactive; negative” under setting [3]; “inactive; negative” (Test System: AMES SALMONELLA TYPHIMURIUM, Strain/Indicator: TA1535, Metabolic Activation: RAT LIVER S-9, PHENOBARBITAL AND BETA-NAPHTHOFLAVONE, Method: PREINCUBATION); “inactive; negative” under setting [4]; “inactive; negative” (Test System: AMES SALMONELLA TYPHIMURIUM, Strain/Indicator: TA1537, Metabolic Activation: RAT LIVER S-9, PHENOBARBITAL AND BETA-NAPHTHOFLAVONE, Method: PREINCUBATION). Moreover, the mutagenic call (Test System: E.COLI, Strain/Indicator: WP2UVRA/PKM101, Metabolic Activation: NONE, Method: PREINCUBATION) is “inactive; negative”; the mutagenic call (Test System: E.COLI, Strain/Indicator: WP2UVRA/PKM101, Metabolic Activation: RAT LIVER S-9, PHENOBARBITAL AND BETA-NAPHTHOFLAVONE, Method: PREINCUBATION) was “inactive; negative”; the mutagenic call (Test System: E.COLI, Strain/Indicator: WP2UVRA, Metabolic Activation: NONE, Method: PREINCUBATION) is “inactive; negative”; the mutagenic call (Test System: E.COLI, Strain/Indicator: WP2UVRA, Metabolic Activation: RAT LIVER S-9, PHENOBARBITAL AND BETA-NAPHTHOFLAVONE, Method: PREINCUBATION) is “inactive; negative”.

As to `CC(C)(C)NC(=O)[C@H]1CC[C@H]2[C@@H]3CC=C4C=C(C(=O)O)CC[C@]4(C)[C@H]3CC[C@]12C`, the mutagenic call is, setting by setting: (Test System: AMES SALMONELLA TYPHIMURIUM, Strain/Indicator: TA97, Metabolic Activation: NONE, Method: STANDARD PLATE) “inactive; negative”; (Test System: AMES SALMONELLA TYPHIMURIUM, Strain/Indicator: TA97, Metabolic Activation: RAT LIVER S-9, AROCLOR 1254, Method: PREINCUBATION) “inactive; negative”; under setting [5], “inactive; negative”; (Test System: AMES SALMONELLA TYPHIMURIUM, Strain/Indicator: TA98, Metabolic Activation: RAT LIVER S-9, AROCLOR 1254, Method: PREINCUBATION) “inactive; negative”; (Test System: AMES SALMONELLA TYPHIMURIUM, Strain/Indicator: TA100, Metabolic Activation: NONE, Method: STANDARD PLATE) “inactive; negative”; (Test System: AMES SALMONELLA TYPHIMURIUM, Strain/Indicator: TA100, Metabolic Activation: RAT LIVER S-9, AROCLOR 1254, Method: PREINCUBATION) “inactive; negative”. For the same molecule, the mutagenic call by setting is: (Test System: AMES SALMONELLA TYPHIMURIUM, Strain/Indicator: TA102, Metabolic Activation: NONE, Method: STANDARD PLATE) “inactive; negative”; (Test System: AMES SALMONELLA TYPHIMURIUM, Strain/Indicator: TA102, Metabolic Activation: RAT LIVER S-9, AROCLOR 1254, Method: PREINCUBATION) “inactive; negative”.

With `Cc1c(C)c(Br)c(Br)c(Br)c1Br`, the mutagenic call (Test System: AMES SALMONELLA TYPHIMURIUM, Strain/Indicator: TA98, Metabolic Activation: HAMSTER, LIVER, S-9, AROCLOR 1254 (10%), Method: PREINCUBATION) was “inactive; negative”; the mutagenic call under setting [1] was “inactive; negative”; the mutagenic call (Test System: AMES SALMONELLA TYPHIMURIUM, Strain/Indicator: TA98, Metabolic Activation: RAT, LIVER, S-9, AROCLOR 1254 (10%), Method: PREINCUBATION) is “inactive; negative”; the mutagenic call (Test System: AMES SALMONELLA TYPHIMURIUM, Strain/Indicator: TA100, Metabolic Activation: HAMSTER, LIVER, S-9, AROCLOR 1254 (10%), Method: PREINCUBATION) was “inactive; negative”; the mutagenic call under setting [2] is “inactive; negative”; the mutagenic call (Test System: AMES SALMONELLA TYPHIMURIUM, Strain/Indicator: TA100, Metabolic Activation: RAT, LIVER, S-9, AROCLOR 1254 (10%), Method: PREINCUBATION) is “inactive; negative”. Besides, the mutagenic call runs as follows: (Test System: AMES SALMONELLA TYPHIMURIUM, Strain/Indicator: TA1535, Metabolic Activation: HAMSTER, LIVER, S-9, AROCLOR 1254 (10%), Method: PREINCUBATION) “inactive; negative”; under setting [3], “inactive; negative”; (Test System: AMES SALMONELLA TYPHIMURIUM, Strain/Indicator: TA1535, Metabolic Activation: RAT, LIVER, S-9, AROCLOR 1254 (10%), Method: PREINCUBATION) “inactive; negative”; (Test System: AMES SALMONELLA TYPHIMURIUM, Strain/Indicator: TA1537, Metabolic Activation: HAMSTER, LIVER, S-9, AROCLOR 1254 (10%), Method: PREINCUBATION) “inactive; negative”; under setting [4], “inactive; negative”; (Test System: AMES SALMONELLA TYPHIMURIUM, Strain/Indicator: TA1537, Metabolic Activation: RAT, LIVER, S-9, AROCLOR 1254 (10%), Method: PREINCUBATION) “inactive; negative”.

On to `O=Nc1ccc2ccc3cccc4ccc1c2c34`, for which the mutagenic call is, setting by setting: (Test System: AMES SALMONELLA TYPHIMURIUM, Strain/Indicator: TA98 (1,8-DNP6), Metabolic Activation: NONE, Method: STANDARD PLATE) “active; positive”; (Test System: AMES SALMONELLA TYPHIMURIUM, Strain/Indicator: TA98(1,8-DNP6), Metabolic Activation: NONE, Method: STANDARD PLATE) “active; positive”; (Test System: AMES SALMONELLA TYPHIMURIUM, Strain/Indicator: TA98 (NR), Metabolic Activation: NONE, Method: STANDARD PLATE) “active; positive”; (Test System: AMES SALMONELLA TYPHIMURIUM, Strain/Indicator: TA98(NR), Metabolic Activation: NONE, Method: STANDARD PLATE) “active; positive”; under setting [5], “active; positive”; (Test System: CHINESE HAMSTER OVARY, Strain/Indicator: CHO (HGPRT), Metabolic Activation: NONE, Method: SUSPENSION) “active; positive”. For the same molecule, the mutagenic call runs as follows: (Test System: CHINESE HAMSTER OVARY, Strain/Indicator: CHO-K1-BH4 (HGPRT), Metabolic Activation: NONE, Method: SUSPENSION) “active; positive”; (Test System: CHINESE HAMSTER OVARY, Strain/Indicator: CHO/HGPRT, Metabolic Activation: NONE) “active; positive”.
